Three substances from patent US20180305408A1, “COMPOUNDS FOR INDUCING TISSUE FORMATION AND USES THEREOF” (HISTIDE AG, priority 2015, published 2018) can be followed below.

No end group written: not given here.

Holding throughout (assay type): cell-based
Test [1] relates to Human umbilical-vein endothelial cells. Nature of the test: Endothelialization: area of adherent junctions (CD31) in HUVECs. Conditions: after 36 hours of culture. Here is the method:
Human umbilical-vein endothelial cells were cultured with and without endothelialization GFR-binding compounds as defined herein (SEQ ID NO: 26). An increase in the area of the adherent junctions (CD31) was observed after 36 hours of culture with GFR-binding compounds as defined herein (FIG. 10).

Test [2] has the same test system. The experiment in a line: Angiogenesis: tube-like structure formation by HUVECs. Conditions: after 18 hours of culture. As to the method: Human umbilical-vein endothelial cells were cultured with and without vascular peptides (SEQ ID NO: 27).
Test [3] has as its system Human epithelial cells. Nature of the test: Wound healing scratch test, collective cell migration. The settings on record: after 18 hours of culture. As to the method:
Human epithelial cells were cultured with or without GFR-binding compounds as defined herein (SEQ ID NO: 28). A usual scratch test was applied (Nat Protoc 2: 329-333) on a monolayer of these epithelial cells in culture (FIG. 12a). An increase in the cell migration velocity for cells cultured with peptides was observed after 18 hours of culture. The cells migrated collectively and the communication between cells was maintained (FIG. 12b). In fact, the injury has been closed rapidly for the cells cultured with GFR-binding compounds as defined herein.

For “SEQ ID NO: 26: endothelialization GFR-binding compound; sequence not in this part (RSVKVAKVRIKPHQGQHKEVQVGG; also: cyclic, ring type not given here)”, the “area of the adherent junctions (CD31)” value in test [1] is “increase”. On to “SEQ ID NO: 27: vascular peptide; sequence not in this part (SNITMQIMRIKPHQGQHIGEMSGG; also: cyclic, ring type not given here)”, for which the “formation of tube-like structures” value in test [2] is reported as “formation of tube-like structures was observed”. For the substance “SEQ ID NO: 28: GFR-binding compound tested for wound healing; sequence not in this part (RPTQVQLRPVQVRKIEYVRKKPKLKKATV; also: cyclic, ring type not given here)”, the cell migration velocity entry in test [3] is reported as “increase”.
